The subject of data set [1] is Hepatoma cell Hep3B (high expression of FGFR4 and FGF19). In words: Hepatoma cell proliferation inhibition experiment (MTS method). The note with it: Homo sapiens, Hep3B; 120 h incubation; read-out: Hep3B(IC50 μM). Type of data set: cell-based. An excerpt:
In this experiment, the MTS method was used to test the inhibitory effect of the compounds on the proliferation of Hepatoma cell Hep3B (high expression of FGFR4 and FGF19), and the half inhibitory concentration IC50 of the compounds to Hep3B was obtained. The Hep3B cell line was purchased from ATCC, and the complete culture medium of the Hep3B cell line was MEM+10% FBS+1% PS. MEM cell culture medium, fetal bovine serum, and trypsin were purchased from Gibco, cell culture flasks were purchased from Greiner, and disposable Cell Counting Plate and Taittinger Blue Solution were purchased from Bio-Rad.
(1) 100 μl Hepatoma cell Hep3B suspension was seeded in a 96-well cell culture plate, and the density of each well was 2.0×10^4 cells/ml.
(3) A mixture of MTS (3-(4,5-dimethylthiazol-2-yl)-5-(3-carboxymethoxyphenyl)-2-(4-sulfophenyl)-2H-tetrazolium)/PMS (phenazine methosulfate) was added into each well for coloration, and MTS/PMS in the mixture was at a ratio of 20:1 (ml:ml). 30 μl of the mixture was added into each well of the culture plate above mentioned in step (2), then the culture plate was incubated for 3 h in the incubator.
(5) The inhibition rate was calculated by the […];
(6) According to the inhibition rate of the different concentrations, the IC50 values of the compounds were obtained by curve fitting.
In general terms: Formazan colour is commonly taken as a measure of viable cells.

Another data set in a line: PK analysis of rats. As to conditions: rat, plasma, po, SD rats, p.o. (10 mg/kg). Type of data set: in vivo. The method, then: In the present invention, the pharmacokinetics experiment of the compounds in rats was performed using the SD rats (Vitolihua).
(1) Mode of administration: single gavage administration and intravenous injection administration.
(2) Dosage: 10 mg/kg in the gavage administration, 3 mg/kg in the intravenous injection administration.
Gavage administration: before administration, 15 min, 30 min, 1 h, 2 h, 4 h, 6 h, 8 h, 24 h; […]
(4) Sample processing: 200 μL of orbital blood was collected at each sampling time point. After anticoagulation with heparin, the blood was centrifuged at 5500 rpm for 10 min, and 60 μL of the supernatant was taken and put into the refrigerator at −80° C. for waiting for testing.
Samples obtained after administration of Compound 1 were tested using 4000 LC-MS/MS analyzer, wherein, the chromatographic separation conditions for testing were:
Samples obtained after administration of Compound 7 were tested using 4000 LC-MS/MS analyzer, wherein, the chromatographic separation conditions for testing were:
Samples obtained after administration of Compound 16 were tested using 4000 LC-MS/MS analyzer, wherein, the chromatographic separation conditions for testing were: […]

Data set [2] is described as follows: PK/PD of NOD-SCID mouse (drug concentration in blood and in tumors). Type of data set: in vivo. The note with it: NOD-SCID, mouse, po, 50 mg/kg, p.o. (50 mg/kg); for AUC(0-t): read-out: AUC0-6 h; for concentration at 4 h / concentration at 6 h: tumor. The method, then:
This experiment conducted when the pharmacological experiment in vivo was performed by gavage administration, wherein, the blood samples and tumor samples were taken at different time points to detect drug concentration in blood and drug concentrations in tumors.
(1) Mode of administration: gavage administration;
(2) Dosage: 50 mg/kg in the gavage administration;
Three mice were sampled at each sampling point;
(4) Blood sample collection: 200 μL of orbital blood was collected at sampling time point for each blood sample. After anticoagulation with heparin, the blood was centrifuged at 5500 rpm for 10 mins. 60 μL of the supernatant was taken and put it into the refrigerator at −80° C. for waiting for testing.
Tumour sample collection: 200-300 mg of each tumor tissue was taken. The tumor weight was marked, quickly freezed in liquid nitrogen and placed into a refrigerator at −80° C. for waiting for testing.
Tumour sample processing: pure water was added into the tumor sample according to a ratio of […] between the weight of the tumor sample and the volume of pure water and then it was homogenized. The homogenate was stored at −90° C. to −60° C. until the sample was analyzed. After 5 μL of acetonitrile/water (v/v=1:1) was added into 50 μL of tumor sample homogenate, 200 μL of acetonitrile (containing Dexamethasone 100 ng/ml as internal standard, or containing Verapamil 2 ng/ml as internal standard) was added. After protein precipitation, the resulting mixture was vortexed for 2 mins at 4° C. with 4600 g, and then centrifuged for 15 mins to obtain the supernatant. 100 μL of the supernatant was taken and added into 200 μL of deionized water. 5500 LC/MS/MS analyser was used for sample injection and analysis, after vortexing for homogeneity. The conditions for chromatographic separation and mass spectrometric analysis were as follows: […]

The test system of another data set is Hep3B. As to the kind of experiment: Pharmacodynamic in vivo, Hep3B model tumor growth inhibition. As to conditions: 60 mg/kg QD, gavage. Set-up: species or system NOD-SCID mice. An excerpt: The Hep3B cell line was purchased from ATCC; MEM cell culture medium, fetal bovine serum, and trypsin were purchased from Gibco; cell culture flasks were purchased from Greiner; and disposable Cell Counting Plate and taittinger Blue Solution Purchased from Bio-Rad. The disposable sterile syringe was purchased from Changzhou Jinlong Medical Plastic Instrument Co., Ltd, eye surgical scissors and eye surgical forceps were purchased from Shanghai Medical Instrument (Group) Co., Ltd. Surgical Instrument Factory, and 6-8 week old female NOD-SCID mice were purchased from Vitalivar.
a. One strain of Hep3B cells was taken out from the cell bank and MEM medium (MEM+10% FBS+1% PS) was used to recover the cells. The resuscitated cells were placed in a cell culture flask (the wall the flask was marked with the cell type, date, cultivator's name), and the cell culture flask was placed in a CO2 incubator (the temperature of the incubator was 37° C. and the CO2 concentration of the incubator was 5%);
b. When the cells covered about 90% of the bottom of the culture flask, passage was conducted. the cells were continued to cultivate in a CO2 incubator after passage. The above process was repeated until the number of the cell satisfied the requirements of pharmacodynamic in vivo;
c. The cultured cells were collected and counted using a BIO-Rad TC20 cell counter. According to the counting results, the cultured cells were resuspended with PBS and matrix gel (1:1) to obtain a cell suspension (density 5×10^7/ml), and the cell suspension was placed in an ice box for later use.
a. The cells were mixed well before seeding, and 0.5 ml of cell suspension was taken with a 1 ml syringe and bubbles in the cell suspension were removed. The syringe with the cell suspension was place on an ice pack for later use.
b. The NOD-SCID mice were set with the left hand, and the skin on the right back of the mice was disinfected with 75% alcohol. The inoculation was beginning after 30 seconds.
c. During inoculation, 1 mL syringe was on the right hand, and the cell suspension of Hep3B was inoculated subcutaneously into the right shoulder of the right back of the mouse at 0.1 mL/mouse. At inoculation interval, the syringe was placed on an ice pack and the mice were inoculated sequentially.
d. According to the tumor growth, the tumor was measured and the tumor size was calculated on the 12-15 days after inoculation.
Tumor volume calculation: tumor volume (mm^3)=length (mm)×width (mm)×width (mm)/2
e. When the tumors grew to an average volume of 100-150 mm^3, the mice were randomly divided into two groups according to tumor size and the weight of the mouse. […]
f. […] Tumors were measured and the mice were weighed twice a week after administration. […]

Each structure is given as a SMILES string.

For the molecule `COCCNc1cc(NC(=O)N2CCCc3cc(CN4CCN(C)CC4=O)c(C=O)nc32)ncc1C#N` [Reference compound, roblitinib, reference compound], the half-maximal inhibitory concentration (IC50) in data set [1] was determined as 0.024 µM. Also, the AUC(0-t) in the data set “PK analysis of rats” (read-out: Curve area AUC0-24 h) was 1590 ng·h/mL. Moreover, the Cmax in the data set “PK analysis of rats” (read-out: Drug concentration in blood Cmax) was found to be 350 ng/mL. In addition, in data set [2] (plasma, Hep3B model), the area under the curve AUC(0-inf) came out at 29100 ng·h/mL, the Cmax stood at 6200 ng/mL, the Tmax is 1 h and the half-life is 3.13 h. The AUC(0-t) in data set [2] (plasma, Hep3B model) amounted to 20200 ng·h/mL. In data set [2] (plasma, SNU878 model), the Cmax turned out to be 5430 ng/mL, the Tmax came out at 4 h and the AUC(0-t) came out at 20400 ng·h/mL. In data set [2] (Hep3B model), this molecule yielded a concentration at 4 h of 64.4 ng/g and a concentration at 6 h of 44.1 ng/g. In data set [2] (SNU878 model), the concentration at 4 h was found to be 3560 ng/g and the concentration at 6 h came out at 1030 ng/g. In the data set on Hep3B, this molecule had a TGI % of 97.7%.

For orientation: IC50 means the concentration at which inhibition is half-maximal. A word on the AUC(0-inf): it is the area under the concentration-time curve extrapolated to infinity. Broadly, the Tmax is the time from dosing to the highest level. A word on the half-life: it is how long it takes for the measured level to halve. Low readings indicate fast loss, high ones slow loss.

(Values after patent US11136320B2, “Fused ring derivative used as FGFR4 inhibitor” (JACOBIO PHARMACEUTICALS CO., LTD., priority 2019, dated 2021).)
